In data set [1] the test system is F9 stem cells. As to the kind of experiment: Metabolism / half-life of retinoids in F9 cells. It is filed as in vitro ADME, mouse. The procedure:
(§1) ^3 H-4-hydroxyretinol and ^3 H-4-oxo-retinol were purified from RA treated, differentiated F9 cells (ATCC CRL 1720) after the differentiated cells were incubated with ^3 H-retinol for 18 h. The identities of purified ^3 H-4-hydroxyretinol and ^3 H-4-oxo-retinol were verified by matching both the elution times on the HPLC and the spectra of known standards.
(§2) F9 stem cells or retinoic acid-treated cells (72 h) were cultured in the presence of 50 nM of either ^3 H-4-hydroxyretinol or ^3 H-4-oxo-retinol for different periods of time.
(§3) FIGS. 5A-5D depict HPLC analysis after incubation in the presence of 50 nM ^3 H-4-oxo-retinol for periods of time as indicated and extraction using the method described in McClean, S. W., et al (15). The results are the same in both stem and retinoic acid- treated cells.

A short description of data set [2]: Metabolism / half-life of retinoids in F9 cells. It is filed as in vitro ADME, mouse. To be noted: mouse; 50 nM; F9 stem or differentiating cells; FIG. 5. On the procedure:
as §1, §2, §3

In data set [3] the test system is F9 stem cells. As to the kind of experiment: Intracellular concentration in differentiating F9 stem cells. It is filed as in vitro ADME, mouse. The following applies: calculated.
The subject of data set [4] is laminin B1. As to the kind of experiment: Laminin B1 gene expression in F9 stem cells by Northern blot. The class given is cell-based. The following applies: Mus musculus, F9, 72 h, read-out: Laminin B1 expression induction. The text has this: (§4) Teratocarcinoma stem cells can be induced to differentiate in monolayer culture by retinoic acid over a 3-4 day period into nonmalignant endoderm cells resembling the extraembryonic endoderm of the mouse blastocyst as described in Gudas, L. J., et al (27). The F9 teratocarcinoma stem cell line is used as a model tumor cell differentiation system because F9 stem cells share similar biochemical, immunological and morphological characteristics with early mouse embryonic stem cells and additionally, large numbers of cells can be cultured and experimentally manipulated. The expression of several homeobox genes including Hoxa-1 is induced by RA in mouse teratocarcinoma cell lines as described in LaRosa, G. J., et al (34) and LaRosa, G. J., et al (35). […] See LaRosa, G. L, et al (34). Other genes such as laminin B1 are activated subsequent to the activation of Hox 1.6 by retinoic acid as described in Vasios, G. W., et al (36).

The subject of data set [5] is RXRs α, β, or γ. As to the kind of experiment: Inhibition of 3H-9-cis retinoic acid binding to RXRs. More on the design: species or system mouse. To be noted: data not shown. The text has this: See Levin, A. A., et al (29).
The test system of data set [6] is cellular retinoic acid binding protein I (CRABP I). As to the kind of experiment: Inhibition of all-trans-3H-retinoic acid binding to CRABP I. The following applies: data not shown.
Data set [7] concerns the target T1, RAR-β (Mus musculus, UniProt P22605).
T1 sequence (P22605 1-448 isoform P22605-3): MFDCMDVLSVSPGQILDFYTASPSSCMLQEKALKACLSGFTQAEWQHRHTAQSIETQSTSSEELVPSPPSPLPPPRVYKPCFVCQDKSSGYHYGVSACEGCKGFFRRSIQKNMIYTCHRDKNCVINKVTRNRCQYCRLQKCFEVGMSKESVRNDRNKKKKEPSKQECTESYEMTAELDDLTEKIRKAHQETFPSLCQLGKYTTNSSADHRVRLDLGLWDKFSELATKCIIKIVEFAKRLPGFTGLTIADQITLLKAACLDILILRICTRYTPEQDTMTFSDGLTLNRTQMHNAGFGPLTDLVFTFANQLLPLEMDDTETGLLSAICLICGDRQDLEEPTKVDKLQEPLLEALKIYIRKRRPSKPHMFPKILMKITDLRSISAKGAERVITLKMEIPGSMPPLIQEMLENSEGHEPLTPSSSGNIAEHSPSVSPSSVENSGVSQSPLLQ
As to the kind of experiment: Competitive binding of 3H-all-trans-retinoic acid to RAR-β.
Procedure: (§5) Retinoids were assayed for their ability to bind members of the family of the retinoic acid receptors, the RARs, as follows:
(§6) COS-1 cells were transfected by DEAE-dextran with pSG5 expression vectors containing cDNAs for mouse RARs α, β, or γ or RXRs α, β, or γ. […] Nucleosol or cytosol fractions were prepared as described in Nervi, C., et al (30) and Nervi, C., et al (31) and stored at -70° C. until use. Aliquots of nucleosol or cytosol were incubated in nuclei lysis buffer as described in Nervi, C., et al (30) with tritiated ligands for 4 h at 4° C. […] For competitive binding assays, the incubations were performed with increasing concentrations of unlabeled competing ligand and a fixed concentration of the radioligand (10 nM ^3 H-retinoic acid). In saturation kinetic studies, incubations were performed in the presence of increasing concentrations of the indicated radioligand. For all binding assays, bound was separated from free radioactivity as described in Levin, A. A., et al (29).

The test system of data set [8] is aging or photodamaged skin. As to the kind of experiment: Treatment of patients with aging or photodamaged skin. The following applies: oral 100 mg/square meter per day or topical 10 mg per square inch per day, 4 to 8 months. It is filed as in vivo, human.
In data set [9] the target is T2, RAR-γ (Mus musculus, UniProt P18911).
T2 sequence (P18911 1-458): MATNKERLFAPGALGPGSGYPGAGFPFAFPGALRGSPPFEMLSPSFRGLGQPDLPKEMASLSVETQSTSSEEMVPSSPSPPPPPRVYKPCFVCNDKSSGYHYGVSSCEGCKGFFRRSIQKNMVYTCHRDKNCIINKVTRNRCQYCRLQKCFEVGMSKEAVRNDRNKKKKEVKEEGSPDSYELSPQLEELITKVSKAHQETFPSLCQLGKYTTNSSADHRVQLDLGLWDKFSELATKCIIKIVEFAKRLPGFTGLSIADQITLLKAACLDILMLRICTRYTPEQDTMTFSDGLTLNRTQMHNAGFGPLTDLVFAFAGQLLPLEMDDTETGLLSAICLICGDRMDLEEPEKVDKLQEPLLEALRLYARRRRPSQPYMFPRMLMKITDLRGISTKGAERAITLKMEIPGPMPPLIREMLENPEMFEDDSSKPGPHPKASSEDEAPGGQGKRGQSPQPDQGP
As to the kind of experiment: Competitive binding of 3H-all-trans-retinoic acid to RAR-γ.
Procedure: as §5, §6

The test system of data set [10] is Hoxa-1. As to the kind of experiment: Hoxa-1 gene expression in F9 stem cells by Northern blot. The class given is cell-based. To be noted: Mus musculus, F9, 72 h, read-out: Hoxa-1 transcripts induction.
From the text: as §4

In data set [11] the test system is acute promyelocytic leukemia. As to the kind of experiment: Treatment of acute promyelocytic leukemia patients. It is filed as in vivo, human. To be noted: oral, 100 mg/square meter per day. The procedure:
Patients with morphologic diagnostic criteria for acute promyelocytic leukemia (M3 or M3 variant subtype) by karyotyping or PCR analysis, including the […] (q22; q12-21) translocation, are treated with oral all-trans-4-oxo-retinol at a dose of 100 mg/square meter of body surface area per day. The drug is formulated in soft gelatin capsules which are administered once or twice a day to provide the dose as stated. The drug is administered for 40 to 60 days until remission induction occurs as indicated by normal karyotype, disappearance of coagulation abnormalities (e.g., increased platelet count and plasma fibrinogen level), observation of differentiation of cancer cells and the appearance of mature granulocytic markers in cell surface immunophenotyping, as indicated by reduced number of cells expressing CD33 and greater portion of cells expressing CD16. Patients with newly diagnosed disease then receive all-trans-4-oxo-retinol for 30 days after remission induction; then, either conventional consolidation therapy (e.g., cytosine arabinoside) or continued treatment with all-trans-4-oxo-retinol alone is continued. During remission induction, liver function tests are performed and serum cholesterol and triglycerides are measured twice a week and bone marrow aspiration is performed once a week until complete remission or failure is documented.

Data set [12] is described as follows: Water solubility. It is filed as physicochemical. To be noted: no data shown.

What is called half-life is the time in which the quantity being followed falls by half. A higher half-life goes with slow loss. What is called IC50 is the point on the concentration scale where inhibition reaches its midpoint. The low end stands for greater potency in that assay, the high end for weaker potency in that assay.

On to `CC1=C(/C=C/C(C)=C/C=C/C(C)=C/CO)C(C)(C)CCC1=O` [4-oxo-retinol, all-trans-4-oxo-retinol], for which the “half-life in F9 stem cells” value in data set [1] (50 nM, order of magnitude in words) was “on the order of days”. The “metabolites of 4-oxo-retinol detected” value in data set [1] (50 nM, presumed 4-oxo-retinyl esters) was “small amounts of several very hydrophobic retinoids”. Besides, the “stability in F9 stem vs differentiating cells” value in [1] (comparison of F9 stem and differentiating cells) was “equally stable”. The “induction of enzyme degrading the retinoid” value in data set [1] (summary statement, vs all-trans-retinoic acid) was “does not induce production of enzyme which degrades it to inactive form”. Further, the “4-oxo-retinoic acid formed from 4-oxo-retinol” value in data set [1] (up to 15 h, 50 nM) is on record as “No 4-oxo-retinoic acid was detected”. The molecule further yielded a half-life at 0.05 µM in [2] of over 15 h. Also, the intracellular concentration entry in [3] is on record as “approximately 85 nM”. The fold induction at 1 µM in [4] was found to be 7; in [10], 25. Further, in [5], the “inhibition of 3H-9-cis retinoic acid binding to RXRs” value was “Neither the 4-hydroxyretinol nor the 4-oxo-retinol inhibited”. Moreover, the “inhibition of binding of all-trans-3H-retinoic acid to CRABP I” value in [6] is “unable to inhibit”. In addition, the IC50 turned out to be 420 ± 110 nM in data set [7] and 3200 ± 520 nM in [9]. The “wrinkles, smoothness, pigmented areas of skin” value in data set [8] is “fewer and reduced depth of wrinkles, increased smoothness of the skin, and a reduction in pigmented areas of the skin”. Also, the “inhibition of 3H-retinoic acid binding to RAR-γ, fold weaker than RAR-α and RAR-β” value in data set [9] (relative to RAR-α and RAR-β, 240 min) worked out at 10 fold. The “outcome of treatment in acute promyelocytic leukemia” value in data set [11] is recorded as “Long term cures are considered to be obtainable”. For the same molecule, the “water solubility compared with all-trans-retinoic acid” value in [12] is recorded as “more water soluble”.

(Values after US5962534A, “Regulating gene expression using retinoids with CH2 OH or related groups at the side chain terminal position” (Cornell Research Foundation, Inc., priority 1997, dated 1999).)
